From US12202815B2, “Selective androgen receptor degrader (SARD) ligands and methods of use thereof” (priority 2018, dated 2025)
Several values for one entry are separate records, joined by “and”; a condition that tells them apart may be missing. Equal values may be shown once. Entries after “also recorded” stand apart in the source; their conditions may differ. Read-outs that look alike come from different tables or passages of the source.

Key:
[1] = test system: full length AR; test: LNCaP or AD1 degradation (AR FL), Western blot; format: cell-based
[2] = format: in vitro ADME; settings: human liver microsomes
Protocol: (§1) The assay was done in a final volume of 0.5 ml in duplicates (n=2). […] After pre-incubation, reaction was started by addition of 1 mM NADPH (pre-incubated at 37° C.). Incubations were carried out in triplicate and at various time-points (0, 5, 10, 15, 30 and 60 minutes) 100 μl aliquots were removed and quenched with 100 μl of acetonitrile containing internal standard. Samples were vortex mixed and centrifuged at 4000 rpm for 10 minutes. The supernatants were transferred to 96 well plates and submitted for LC-MS/MS analysis. As control, sample incubations done in absence of NADPH were included. From % PCR (% Parent Compound Remaining), rate of compound disappearance is determined (slope) and in vitro CLint (μl/min/mg protein) was calculated.

[3] = for metabolism (in words): data not shown
[4] = RLM metabolism half-life; format: in vitro ADME; settings: rat liver microsomes
Protocol: as §1

[5] = for serum drug level (bioavailability): rats dosed at 20 mg/kg
[6] = in vivo; settings: male, Sprague Dawley, rat, 20 mpk
[7] = Pharmacokinetics in male Sprague Dawley rats (oral 7 days, iv Day 1)
Protocol: At initial dosing, the animals were 12 weeks of age. The animals were group housed (up to three animals/cage/group) in polycarbonate cages with hardwood chip bedding. […] Water was provided fresh daily, ad libitum. […] As necessary, the 12-hour dark cycle was interrupted to accommodate study procedures. […] Individual doses were calculated based on body weights recorded on Day 1 and Day 7 of dose administration. […] A single intravenous dose was administered via a tail vein and blood sample on Day 1.
Animals were weighed at the time of animal selection and on Day 1 and Day 7 of dose administration.
Centrifugation began within 1 hour of collection. Plasma was placed into 96-well tubes with barcode labels. Plasma was maintained on dry ice prior to storage at approximately −70° C. Drug concentrations were measured by established chromatography/mass spectrometry (LC-MS/MS) methods.

[8] = High dose Hershberger experiment, 7 days oral; format: in vivo, Sprague Dawley rat; settings: 100 mpk oral 7 days, individual animals
Protocol: Body weights were recorded on day 0 and day 7 (Table 4B). On day 7, animals were sacrificed and organs were observed.

[9] = target: T1, AR (Rattus norvegicus, UniProt P15207); settings: castrated rats, 20 mg/kg for 13 days
T1 sequence (P15207 1-902): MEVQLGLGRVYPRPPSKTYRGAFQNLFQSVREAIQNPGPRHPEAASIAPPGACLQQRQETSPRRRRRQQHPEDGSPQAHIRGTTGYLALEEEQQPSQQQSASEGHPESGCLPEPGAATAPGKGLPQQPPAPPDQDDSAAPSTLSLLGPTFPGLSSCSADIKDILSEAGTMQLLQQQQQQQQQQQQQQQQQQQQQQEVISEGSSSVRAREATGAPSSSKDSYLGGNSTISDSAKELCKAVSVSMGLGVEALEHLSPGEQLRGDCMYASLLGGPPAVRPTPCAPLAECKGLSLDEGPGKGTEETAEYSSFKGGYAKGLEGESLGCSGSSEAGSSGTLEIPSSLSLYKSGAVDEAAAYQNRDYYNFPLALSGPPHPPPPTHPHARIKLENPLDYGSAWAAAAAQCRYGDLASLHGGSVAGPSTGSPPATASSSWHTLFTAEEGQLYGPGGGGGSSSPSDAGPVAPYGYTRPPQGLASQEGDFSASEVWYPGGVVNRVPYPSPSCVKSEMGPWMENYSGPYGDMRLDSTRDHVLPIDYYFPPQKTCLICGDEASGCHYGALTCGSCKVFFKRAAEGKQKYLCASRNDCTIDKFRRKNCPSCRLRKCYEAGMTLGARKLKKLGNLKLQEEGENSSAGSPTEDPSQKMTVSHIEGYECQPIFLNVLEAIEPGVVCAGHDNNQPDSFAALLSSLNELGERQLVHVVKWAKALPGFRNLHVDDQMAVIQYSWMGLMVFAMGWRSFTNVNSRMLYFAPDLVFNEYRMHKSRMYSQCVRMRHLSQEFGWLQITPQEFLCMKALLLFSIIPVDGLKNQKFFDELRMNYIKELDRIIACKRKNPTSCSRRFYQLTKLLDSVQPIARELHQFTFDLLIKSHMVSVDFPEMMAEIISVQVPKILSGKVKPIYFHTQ
Description: One week after castration, the animals were randomized and dosed for 13 days p.o. as indicated below. Dosing solutions were be prepared in 20% DMSO+80% PEG. Body weights were be measured on day 1 and at the time of sacrifice. At sacrifice, prostate and seminal vesicles weights were taken.

[10] = Table 9, Group 3, oral 30 mg/kg
[11] = male, Sprague Dawley, rat, in vivo, iv, 5 mg/kg
[12] = male, Sprague Dawley, rat, in vivo, po, 5 mg/kg
[13] = male, Sprague Dawley, rat, in vivo, po, 20 mg/kg
[14] = male, Sprague Dawley, rat, in vivo, po, 30 mg/kg
[15] = male, Sprague Dawley, rat, in vivo, po, 60 mg/kg

With C[C@](O)(Cn1ccc2cc(F)ccc21)C(=O)Nc1ccc(C#N)c(C(F)(F)F)c1 [Compound 11] the “Degradation (% at 3 μM)” value ([1]; 3 μM, Table 3) was 60% and the “HLM Metabolism (H.L. min)” value [2] was 6 min.

With C[C@](O)(Cn1ccc2cc(F)ccc21)C(=O)Nc1cnc(C#N)c(C(F)(F)F)c1 [Compound 47, (S)—N-(6-Cyano-5-(trifluoromethyl)pyridin-3-yl)-3-(5-fluoro-1H-indol-1-yl)-2-hydroxy-2-methylpropanamide] the “metabolism (in words)” value [3] was “rapid metabolism”.

In the case of C[C@](O)(Cn1nc(F)c2cc(F)ccc21)C(=O)Nc1cnc(C#N)c(C(F)(F)F)c1 [Compound 99, (S)—N-(6-Cyano-5-(trifluoromethyl)pyridin-3-yl)-3-(3,5-difluoro-1H-indazol-1-yl)-2-hydroxy-2-methylpropanamide], the “metabolism (in words)” value [3] is reported as “rapid metabolism”.

With C[C@](O)(Cn1cc(F)cn1)C(=O)Nc1ccc(C#N)c(C(F)(F)F)c1 [Compound 1002] the “RLM Metebolism (H.L. min)” value [4] was 78 min, the “HLM Metabolism (H.L. min)” value [2] was 82 min and the “serum drug level (bioavailability)” value [5] was 33 nM. The concentration at 30 h [6] was 33 nM, the “DN AUC0-24” value [7, 10] was 2070 (h * ng/mL)/(mg/kg) and the “DN Cmax” value [7, 10] was 111 (ng/mL)/(mg/kg). The AUC0-24 [7, 11] was 9580 ng·h/mL, the AUC(0-inf) [7, 11] was 9600 ng·h/mL and the AUC(0-t) [7, 11] was 9580 ng·h/mL. The C0 [7, 11] was 2460 ng/mL, the Cmax [7, 11] was 2290 ng/mL and the “DN AUC0-24” value [7, 11] was 1920. The Tmax [7, 11] was 0.083 h, the Vd [7, 11] was 2.14 L/kg and the clearance [7, 11] was 8.68 mL/min/kg. The half-life ([7]; male, Sprague Dawley, rat, in vivo, iv, 5 mg/kg, elimination half-life) was 2.6 h, the half-life ([7]; male, Sprague Dawley, rat, in vivo, iv, 5 mg/kg, t1/2) was 2.62 h and the AUC0-24 [7, 12] was 6860 ng·h/mL. For the same molecule, the AUC(0-inf) [7, 12] was 7050 ng·h/mL, the AUC(0-t) [7, 12] was 6860 ng·h/mL and the Cmax [7, 12] was 526 ng/mL. The “DN AUC0-24” value [7, 12] was 1370, the Tmax [7, 12] was 1 h and the half-life ([7]; male, Sprague Dawley, rat, in vivo, po, 5 mg/kg, t1/2) was 4.87 h. For the same molecule, the AUC0-t [7, 13] was 37000 ng·h/mL, the AUC(0-t) [7, 13] was 37000 ng·h/mL and the Cmax [7, 13] was 2620 ng/mL. For the same molecule, the “DN AUC0-24” value [7, 13] was 1850, the Tmax [7, 13] was 6 h and the Cmax [7, 14] was 3330 ng/mL. The Tmax [7, 14] was 12 h, the AUC0-24 [7, 15] was 77500 ng·h/mL and the AUC(0-t) [7, 15] was 77500 ng·h/mL. For the same molecule, the Cmax [7, 15] was 3800 ng/mL, the “DN AUC0-24” value [7, 15] was 1290 and the Tmax [7, 15] was 1 h.

With C[C@](O)(Cn1cc(C(F)(F)F)cn1)C(=O)Nc1ccc(C#N)c(C(F)(F)F)c1 [Compound 1017] the “RLM Metebolism (H.L. min)” value [4] was 400 min, the “HLM Metabolism (H.L. min)” value [2] was 400 min and the “DMPK (MLM) T1/2 (min)” value ([3]; MLM) was “Infinity”.

With C[C@](O)(Cn1cc(F)cn1)C(=O)Nc1cnc(C#N)c(C(F)(F)F)c1 [Compound 1022] the “RLM Metebolism (H.L. min)” value [4] was 146 min, the “HLM Metabolism (H.L. min)” value [2] was 108 min and the “Serum Conc.” value ([5]; Table 2, rats 20 mg/kg, 24-30 hours after last dose) was 64 nM. For the same molecule, the “Serum Conc.” value ([5]; Table 3, 20 mg/kg Hershberger) was 64 nM, the “serum drug level (bioavailability)” value [5] was 64 nM and the concentration at 30 h [6] was 64 nM.

In the case of C[C@](O)(Cn1cc(-c2ccc(F)cc2)nn1)C(=O)Nc1ccc(C#N)c(C(F)(F)F)c1 [Compound 1045], the “pharmacokinetic properties (in words)” value ([5]; 20 mg/kg Hershberger experiment) is reported as “outstanding pharmacokinetic properties”.

In the case of C[C@](O)(Cn1cc(C#N)cn1)C(=O)Nc1ccc(C#N)c(C(F)(F)F)c1 [Compound 1048], the “RLM Metebolism (H.L. min)” value [4] is reported as 86 min and the “HLM Metabolism (H.L. min)” value [2] is reported as 400 min.

For C[C@](O)(Cn1cc(Br)c(F)n1)C(=O)Nc1ccc(C#N)c(C(F)(F)F)c1 [Compound 1058], the “RLM Metebolism (H.L. min)” value [4] was 400 min, the “HLM Metabolism (H.L. min)” value [2] was 138 min and the “Body wt. on sac. day” value [8] was 430 g and 470 g. The “Day 0 body wt.” value [8] was 430 g and 472 g, the “decreased exposure at the same dose as 1065” value ([7]; 20 mg/kg) was 37% and the “DN AUC0-24” value ([7]; Table 10, Group 1, oral 5 mg/kg/day) was 5350 (h * ng/mL)/(mg/kg/day). The “DN AUC0-24” value ([7]; Table 10, Group 2, oral 10 mg/kg/day) was 4460 (h * ng/mL)/(mg/kg/day), the “DN AUC0-24” value ([7]; Table 10, Group 3, oral 20 mg/kg/day) was 3200 (h * ng/mL)/(mg/kg/day) and the “DN AUC0-24” value ([7]; Table 10, Group 4, oral 30 mg/kg/day) was 2380 (h * ng/mL)/(mg/kg/day). The “DN AUC0-24” value ([7]; Table 10, Group 5, iv 10 mg/kg Day 1) was 4550 (h * ng/mL)/(mg/kg/day).

With C[C@](O)(Cn1cc(Cl)c(Br)n1)C(=O)Nc1ccc(C#N)c(C(F)(F)F)c1 [Compound 1066, (S)-3-(3-Bromo-4-chloro-1H-pyrazol-1-yl)-N-(4-cyano-3-(trifluoromethyl)phenyl)-2-hydroxy-2-methylpropanamide] the “RLM Metebolism (H.L. min)” value [4] was 300 min and the “HLM Metabolism (H.L. min)” value [2] was 319 min.

In the case of C[C@](O)(Cn1ncc(Cl)c1Br)C(=O)Nc1ccc(C#N)c(C(F)(F)F)c1 [Compound 1067, (S)-3-(5-Bromo-4-chloro-1H-pyrazol-1-yl)-N-(4-cyano-3-(trifluoromethyl)phenyl)-2-hydroxy-2-methylpropanamide], the “SARD Activity Full Length % inhibition at 1 μM” value ([1]; first value of the pair, 1 μM) is reported as 61% and the “SARD Activity Full Length % inhibition at 10 μM” value ([1]; second value of the pair, 10 μM) is reported as 86%.

With C[C@](O)(COc1ccc(C#N)cc1)C(=O)Nc1ccc(C#N)c(C(F)(F)F)c1 [Enobosarm] the “SV and VP re-growth, % of intact vehicle” value [9] was 50-60% and the “agonist activity in ventral prostate and seminal vesicles (in words)” value ([9]; 20 mg/kg) was “partial agonist; also recorded: significant agonism”.
